Source: ChEMBL document CHEMBL4673271, “Denigrins and Dactylpyrroles, Arylpyrrole Alkaloids from a Dactylia sp. Marine Sponge” (J Nat Prod, 2020)
Starred links: 1 amine or outer side, 2 acyl side, 3 side chain; linkers in the order of their positions; H or OH if unused. Positions of bridges follow the written chain, without caps; N, C: chain ends. Non-standard residues stand in square brackets, D forms with d. Residues, ends and D or L forms follow the SMILES beside them. Chains are numbered I, II in the order given. Actinocin(1to9) = Cc1c2oc3c(C)ccc(C(=O)[*:2])c3nc-2c(C(=O)[*:1])c(N)c1=O; NMeV = CN[C@H](C(=O)O)C(C)C; Sar = CNCC(=O)O

Tests used:
Assay type in all cases: cell-based
[1] = Cytotoxicity against human Rh4 cells assessed as reduction in cell viability >=20 uM
[2] = Inhibition of PAX3-FOXO1 (unknown origin) stably transfected Rh4 cells co-expressing CMV-Luc after 24 hrs by SteadyLite luciferase assay; conditions: Homo sapiens, Rh4, 24 h
[3] = Inhibition of PAX3-FOXO1 (unknown origin) stably transfected Rh4 cells co-expressing ALK-Luc after 24 hrs by SteadyLite luciferase assay; conditions: Homo sapiens, Rh4, 24 h

IC50 [2]	IC50 [3]	Compound	Activity [1]
13 µM	13 µM	O=C1C(c2ccc(O)cc2)=C2C(=C(c3ccc(O)cc3)C(=O)N2CCc2ccc(O)cc2)c2c1[nH]c1c(O)cccc21	Toxic
0.001 µM	0.001 µM	Cc1c2oc3c(C)ccc(C(=O)N[C@@H]4C(=O)N[C@H](C(C)C)C(=O)N5CCC[C@H]5C(=O)N(C)CC(=O)N(C)[C@@H](C(C)C)C(=O)O[C@@H]4C)c3nc-2c(C(=O)N[C@@H]2C(=O)N[C@H](C(C)C)C(=O)N3CCC[C@H]3C(=O)N(C)CC(=O)N(C)[C@@H](C(C)C)C(=O)O[C@@H]2C)c(N)c1=O [DACTINOMYCIN] (I: T[dV]P[Sar][NMeV] / II: T[dV]P[Sar][NMeV]; ester I:1-I:C, II:1-II:C; linker I:N-II:N via Actinocin(1to9))	–
